What was measured:
MIA PaCa-2 = experiment: Antiproliferative activity against human MIA PaCa-2 cells assessed as reduction in cell viability incubated for 72 hrs by Cell Titer-Glo reagent based luminescent cell viability assay; assay type: functional; conditions: MIA PaCa-2, 72 h
[1] = Inhibition of ERK1/2 phosphorylation in human MIA PaCa-2 cells incubated for 2 hrs by MSD assay; assay type: cell-based; conditions: MIA PaCa-2, 2 h
GTPase KRas = GTPase KRas (Homo sapiens, UniProt P01116, C118A/G12C); experiment: Inhibition of recombinant His-tagged GDP-bound human KRAS G12C/C118A mutant (1 to 169 residues) (unknown origin) extracted by Escherichia coli assessed as SOS1-catalyzed GDP-GTP exchange preincubated for 2 hrs followed by SOS1 and GTP addition for 30 mins and measured after 45 mins of GST-tagged c-RAF addition by luminescence based Alphascreen assay
[2] = Oral bioavailability in mouse; assay type: ADME, organism-based; conditions: in vivo
[3] = Unbound AUC in mouse at 5 mg/kg, po; assay type: ADME, organism-based; conditions: in vivo
[4] = Unbound AUC in mouse at 100 mg/kg, po; assay type: ADME, organism-based; conditions: in vivo
[5] = Clearance in mouse; assay type: ADME, organism-based; conditions: in vivo
animal or person = conditions: Mus musculus, MIA PaCa-2, po, 2 h, read-out: INH

| SMILES | IC50 (MIA PaCa-2) | IC50 [1] | IC50 (GTPase KRas) | bioavailability [2] | fAUC [3] | fAUC [4] | clearance [5] | inhibition in vivo at 100 mg/kg (animal or person) |
| --- | --- | --- | --- | --- | --- | --- | --- | --- |
| C=CC(=O)N1CC2(CCN(c3nc4c(c(-c5cccc6sc(N)nc56)n3)CCCC4)C2)C1 | > 5000 nM | 8130 nM | 890 nM | – | – | – | – | – |
| C=CC(=O)N1CC2(CCN(c3nc(N[C@H](CC(=O)NC)CC(C)C)nc(-c4cccc(OC)c4OC)n3)C(C)C2)C1 (stereo not given in full) | – | 6010 nM | 3200 nM | – | – | – | – | – |
| C=CC(=O)N1CC2(CCN(c3nc4c(c(-c5cc(O)cc6ccccc56)n3)CCCC4)C2)C1 | > 5000 nM | 8480 nM | 690 nM | – | – | – | – | – |
| C=CC(=O)N1CC2(CCN(c3nc4c(c(-c5cc(O)cc6ccccc56)c3F)C[C@H]3C[C@@H]4C3(C)C)C2)C1 | – | – | – | 14% | 0.021 µM·h | 1.01 µM·h | – | 55% |
| C=CC(=O)N1CC2(CCN(c3nc4c(c(-c5c(C)ccc6[nH]ncc56)n3)CCC(C)(C)C4)C2)C1 | 3350 nM | 6390 nM | 840 nM | – | – | – | – | – |
| C=CC(=O)N1CC2(CCN(c3nc(N[C@H](CC(=O)NC)CC(C)C)c4ccccc4n3)C2)C1 | 1290 nM | 6170 nM | – | – | – | – | – | – |
| C=CC(=O)N1CC2(CCN(c3nc4c(c(-c5cc(O)cc6ccccc56)c3Cl)COC(C)(C)C4)C2)C1 | – | – | – | 50% | 0.042 µM·h | 0.15 µM·h | – | – |
| C=CC(=O)N1CC2(CCN(c3nc(N[C@H](CC(=O)NC)CC(C)C)nc(-c4cccc(OC)c4Cl)n3)CC2)C1 | – | 8840 nM | 1750 nM | – | – | – | – | – |
| C=CC(=O)N1CC2(CCN(c3nc4c(c(-c5c(C)ccc6[nH]ncc56)n3)CCCC4)C2)C1 | > 5000 nM | 8240 nM | 3830 nM | – | – | – | – | – |

Further lines, with some results ahead:

| IC50 (MIA PaCa-2) | IC50 [1] | IC50 (GTPase KRas) | bioavailability [2] | fAUC [3] | fAUC [4] | clearance [5] | SMILES | inhibition in vivo at 100 mg/kg (animal or person) |
| --- | --- | --- | --- | --- | --- | --- | --- | --- |
| 890 nM | 1590 nM | – | – | – | – | – | C=CC(=O)N1CC2(CCN(c3nc4c(c(N[C@H](CC(=O)NC)CC(C)C)n3)CCCC4)C2)C1 | – |
| 143 nM | 101 nM | 22 nM | 34% | 0.013 µM·h | – | – | C=CC(=O)N1CC2(CCN(c3nc4c(c(-c5cc(O)cc6ccccc56)c3C#N)COC(C)(C)C4)C2)C1 | – |
| 119 nM | 217 nM | 62 nM | 27% | 0.027 µM·h | 0.36 µM·h | – | C=CC(=O)N1CC2(CCN(c3nc4c(c(-c5cc(O)cc6ccccc56)c3F)COC(C)(C)C4)C2)C1 | – |
| 11 nM | 10 nM | 19 nM | – | – | – | – | C=CC(=O)N1CC2(CCN(c3nc4c(c(-c5c(C)ccc6[nH]ncc56)c3C#N)C[C@H]3C[C@@H]4C3(C)C)C2)C1 | – |
| 32 nM | 100 nM | – | 44% | 0.018 µM·h | 0.137 µM·h | – | C=CC(=O)N1CC2(CCN(c3nc4c(c(-c5cc(O)cc6ccccc56)c3C)COC(C)(C)C4)C2)C1 | – |
| 21 nM | 40 nM | 19 nM | 4% | 0.001 µM·h | – | – | C=CC(=O)N1CC2(CCN(c3nc4c(c(-c5cc(O)cc6ccccc56)c3C#N)C[C@H]3C[C@@H]4C3(C)C)C2)C1 | – |
| 96 nM | 158 nM | 64 nM | 3% | 0.003 µM·h | – | 90 mL/min/kg | C=CC(=O)N1CC2(CCN(c3nc4c(c(-c5c(C)ccc6[nH]ncc56)c3C#N)COC(C)(C)C4)C2)C1 | – |
| 720 nM | 1230 nM | 610 nM | – | – | – | – | C=CC(=O)N1CC2(CCN(c3nc(N[C@H](CC(=O)NC)CC(C)C)nc(-c4cccc(OC)c4F)n3)C2)C1 | – |
| 720 nM | 950 nM | 300 nM | – | – | – | – | C=CC(=O)N1CC2(CCN(c3nc(N[C@H](CC(=O)NC)CC(C)C)nc(-c4cc(F)ccc4OC)n3)CC2(F)F)C1 | – |
| 42 nM | 67 nM | – | – | – | – | – | C=CC(=O)N1CC2(CCN(c3nc4c(c(-c5c(C)ccc6[nH]ncc56)c3C#N)CCC(C)(C)C4)C2)C1 (atropisomer P) | – |

— ChEMBL document CHEMBL6153120, “Identification of Structurally Novel KRASG12C Inhibitors through Covalent DNA-Encoded Library Screening” (J Med Chem, 2025)
